Data from patent EP0227593A1, “Use of chelating agents” (THE HOSPITAL FOR SICK CHILDREN, priority 1985, dated 1987).

Assays:
[1] = test system: HL-60 cells; assay: Colony growth of HL-60 cells; type: cell-based, human; details: concentration of 10 µm
Experimental: HL-60 cells, a promyeloctic leukemia cell line originally developed by Dr. R. Gallo, NIH, were used. Cells were grown in RPMI supplemented with 10 % heat inactivated fetal calf serum (FCS, Flow Laboratories, Rockville, MO) and 2 mM glutamine (Gibco, Berkely, CA), at densities ranging from 1-2 x 10⁵/ml to 1-10⁶/ml, in a 5 % CO₂ humidified atmosphere at 37°C.
(§1) HL-60 cells (10⁴/ml) were plated in 0.8 % methycellulose in RPMI-1640 medium supplemented with 20 % heat inactivated (56°C, 30 min) fetal calf serum at a final volume of 1 ml/culture plate. Cultures were set up in duplicates and maintained at 37°C in a 5 % CO₂ humidified atmosphere. Deferoxamine was dissolved in iron-free RPMI culture medium and added at the initiation of culture at different concentrations (1-10 µM). Colonies were counted at 7 days using an inverted microscope. A cluster of more than 20 cells was defined as a colony. Individual colonies were plucked from culture plates spread on glass slides and morphologically assessed after preparation with Wright's stain and non-specific esterase in the presence of fluoride (29). The self renewal capacity of cells was assessed according to McCulloch et al (30). RPMI-1640 medium was added to culture dishes for 2 hrs; the contents of each dish were then transferred into a tube, centrifuged and washed with medium three times. Cells from each dish were counted separately, and viability was assessed by trypan blue dye exclusion. Cells (1x10⁴/ml) from each dish were recultured in 0.8 % methylcellulose as before.

[2] = test system: HL-60 cells; assay: HL-60 colony growth with cytostatic compounds alone or with 1 µM DFO; type: cell-based, human; details: cytostatic alone, various concentrations
Experimental: as §1, with “before. […]” for “before.”
Cultures were evaluated at day 6 using an inverted microscope (100 x magnification). A cluster of more than 20 cells was determined as a colony.

[3] = test system: L-1210 tumour cells; assay: L-1210 tumour growth in mice; type: in vivo; details: day 8
Experimental: One hour prior to kill on day 8 the mice received one ip injection of 0.002 mCi of 3H-thymidine per g body weight. Cells were harvested from the peritoneal cavity, the volume of ascites measured and the cell counts determined in a coulter counter, after lysis of red cells with zap-oglobin, for calculation of total tumour cell numbers. Also, of each sample cell smears were done, Feulgen stained and autoradiographed, whereby the number and percentage of labelled cells was determined and used as a measure for proliferating cells.

[4] = test system: Lewis lung carcinoma; assay: Tumour growth and metastases of Lewis lung carcinoma in mice; type: in vivo; details: 5 injections
Experimental: Female C57B16 mice (10 mice/group, 18-22 g body weight) were i.m. injected into the left hind leg with 0.1 ml of a tumour cell suspension of Lewis lung carcinoma (day 0).
Nine groups of animals were investigated. The test compounds were s.c. administered as follows: physiological saline: once daily for eleven days starting from day 0 up to day 10. DFO: 0.5 ml in distilled water in a dose of 10 and 30 mg/kg once daily for eleven days, on day 0 up to day 10 after tumour inocculation. 10-EDAM: 0.5 ml in distilled water in a dose of 3 and 6 mg/kg, once daily on days 1, 3, 5, 7 and 9 after tumour inocculation.
Both hind legs were removed from the body, weighed, and the difference between the tumour bearing and the tumour free leg was taken as the tumour weight of one idividual mouse.
Lungs were filled up with Pelikan-ink via the trachea, fixed in Fekete-solution and metastases (white spot on black back-ground) on the lung surface were counted microscopically.

[5] = DFO 400 mg/kg/d s.c. minipump from day 2, Ara-C 200 mg/kg once ip on day 6

Q: How did the colony formation [1] turn out when `CC(=O)N([O-])CCCCCNC(=O)CCC(=O)N([O-])CCCCCNC(=O)CCC(=O)N([O-])CCCCCN.[Fe+3]` [Ferrioxamine] was run?
A: Its colony formation is “did not affect colony formation”.

Q: Which HL-60 colony growth [2] does the source give for `Nc1ccn([C@@H]2O[C@H](CO)[C@@H](O)[C@@H]2O)c(=O)n1` [Ara-C, 1-β-D-arabinofuranosyl-cytosine] here?
A: The HL-60 colony growth was “inhibited colony growth in a dose-dependent manner”.

Q: And the “proportions of proliferating cells” value ([3]; 3H-thymidine labelled cells, same doses as Table 12)?
A: Its value is 26 % ± 6%.

Q: And the “Number of cells in the peritoneal cavity % of control” value [3, 5]?
A: The value was 30%.

Q: And the “Number of cells in the peritoneal cavity x̄ ± SD” value [3, 5]?
A: The value was 1.11 ± 0.40 * 10^8.

Q: And the “Number of proliferating cells in peritoneal cavity % of control” value [3, 5]?
A: Its value is 24%.

Q: What about the “Number of proliferating cells in peritoneal cavity x̄ ± SD” value [3, 5] of the same compound?
A: Its value is 0.29 ± 0.10 * 10^8.

Q: What does the source list for `CCC(Cc1cnc2nc(N)nc(N)c2n1)c1ccc(C(=O)N[C@@H](CCC(=O)O)C(=O)O)cc1` (stereo partly drawn) [10-EDAM, N-[4-[1-(2,4-Diamino-6-pteridinyl)but-2-yl]-benzoyl]-L-glutamic acid]?
A: Number of lung metastases % of control ([4]; group 4: 10-EDAM 3 mg/kg s.c.): 66%; Number of lung metastases x̄ ± SD ([4]; group 4: 10-EDAM 3 mg/kg s.c.): 44 ± 18; Tumour weight % of control ([4]; group 4: 10-EDAM 3 mg/kg s.c.): 91%; Tumour weight x̄ ± SD ([4]; group 4: 10-EDAM 3 mg/kg s.c.): 6.87 ± 0.47 g; Number of lung metastases % of control ([4]; group 5: 10-EDAM 6 mg/kg s.c.): 34%; Number of lung metastases x̄ ± SD ([4]; group 5: 10-EDAM 6 mg/kg s.c.): 23 ± 10; Tumour weight % of control ([4]; group 5: 10-EDAM 6 mg/kg s.c.): 89%; Tumour weight x̄ ± SD ([4]; group 5: 10-EDAM 6 mg/kg s.c.): 6.70 ± 1.06 g

Q: With `CN(Cc1cnc2nc(N)nc(N)c2n1)c1ccc(C(=O)N[C@@H](CCC(=O)O)C(=O)O)cc1` [methotrexate, L-(+)-N-[4-N-(2,4-diamino-6-pteridinyl)-methyl-N-methyl-amino]-benzoyl-L-glutamic acid] as the compound, how does the HL-60 colony growth [2] read?
A: The HL-60 colony growth was “dose-dependent growth inhibitory effect”.
